Measurements as given in US7662851B2, “Use of specific cyklolignans” (Axelar AB, priority 2001, dated 2010).

Key:
insulin receptor (IR) = target: T1, insulin receptor (IR) (Homo sapiens, UniProt P06213); assay: Tyrosine phosphorylation of IR in intact FM55 melanoma cells; type: cell-based; settings: 0.05 μM, 1 h
T1 construct: endogenous in cells; host or cells: FM55 melanoma cells
Description: Cells were cultured to subconfluency in 6-cm plates, and then fresh medium containing 10% FBS and the desired compounds were added for 1 h. The cells were then lyzed and subjected to immunoprecipitation using specific antibodies. Immunoprecipitates were resolved by sodium dodecyl sulphate polyacrylamide gel electrophoresis (SDS-PAGE) and transferred to nitro-cellulose membranes and incubated with anti-phosphotyrosine antibody. Antibodies to actin (in cell extract) or IGF-1R beta subunit were used as loading controls. After detection the films were scanned for quantification.
FM55 melanoma cells were cultured in the same way as described in Experiment 1. When reaching a density of 65,000 cells/cm^2 in the dishes, they were treated for 1 h with 0 (control) and 0.05 μM of picropodophyllin and podophyllotoxin, respectively. The cells were then isolated and subjected to immunoprecipitation of the IGF-1R, fibroblast growth factor receptor (FGFR), platelet-derived growth factor receptor (PDGFR), epidermal growth factor receptor (EGFR), insulin receptor (IR) and insulin substrate-1 (IRS-1) using antibodies to respective molecules. IRS-1 is a substrate of IGF-1R, and therefore its phosphorylation is dependent on phosphorylated IGF-1R. Gelelectrophoresis, Western blotting and quantification of the different signals were performed as described above.

EGFR tyrosine kinase = EGFR tyrosine kinase (Homo sapiens, UniProt P00533); assay: In vitro tyrosine kinase assay: substrate phosphorylation by EGFR, cell-free; type: biochemical; settings: FIG. 3
[1] = Systemic toxicity, daily intraperitoneal injection in nude mice; settings: for Signs of disease: up to 5 days
Description: Four to five-week old pathogen-free nude mice (nu/nu) were used and housed within plastic isolators in a sterile facility. […] Experimental treatments with podophyllotoxin, deoxypodophyllotoxin or picropodophyllin were performed by daily intraperitoneal injections of the compound in 100 μl volume of solvent, composed of a mixture of DMSO and physiological saline (8:2). Control mice were treated with the solvent. 3-6 animals were treated in each group. Animals were monitored three times a week for signs of disease and tumor growth. Tumor mass was estimated using the formula (d^2×D)/2, where d and D represent the small and large diameters of the tumor, respectively. The mice were carefully observed for presence of side effects and were sacrificed at the end of the experiments for histological analysis of the lesions. All experiments were performed according to the ethical guidelines for laboratory animal use, provided by institutional ethical committee.
In the next experiment we analyzed systemic effects of the drugs by injecting 100 μl intraperitoneally of each compound daily over 5 days. Two doses were injected (7 or 28 mg/kg/d) and 3-6 mice were used for each drug and dose. The mice were checked carefully daily for signs of discomfort, diseases and weight loss.

[2] = tested on: ES-1 (Ewing's sarcoma cells) xenografts; assay: Tumor growth of ES-1 xenografts in nude mice; type: in vivo; settings: 28 mg/kg i.p. daily 4-6 days, then 4-6 days without treatment, FIG. 6
Description: Control mice were treated with the solvent. 3-6 animals were treated in each group.
Because of the toxicity of podophyllotoxin and deoxypodophyllotoxin, we only used picropodophyllin to analyze effects on tumor xenografts. For this purpose ES-1 (Ewing's sarcoma cells) and BE (melanoma cells) xenografts were established in nude mice. When the ES-1 and BE tumors started growing subcutaneously and were measurable, mice were treated daily with intraperitoneal injections of picropodophyllin (28 mg/kg, which was required for giving an average concentration above 0.05 μM of picropodophyllin in the blood plasma) or 80% DMSO in saline as a carrier for 4-6 days, followed by 4-6 days without treatment. The mice were then killed and the tumors analyzed by an experienced pathologist.

[3] = tested on: K562/S chronic myeloid leukemia cells; assay: Leukemia cell viability, K562/S; type: cell-based, human; settings: Homo sapiens, 72 h, read-out: IC50 for cell viability
Description: The human chronic myeloid leukemia K562/S and K562/Vcr30 lines and the acute myeloid leukemia cell lines HL60/0 and HL60/Nov were obtained from ATCC. The K562/S and […] are wild type (non-resistant) cells, whereas K562/Vcr30 and HL60/Nov are cytostatic-resistant sublines. All leukemia cell lines were cultured in RPMI 1640 medium supplemented with 10% fetal bovine serum and with 2 mM L-glutamine, benzylpenicillin (100 U/ml) and streptomycin (100 μg/ml). The cells were grown in tissue culture flasks maintained at 95% air/5% CO2 atmosphere at 37° C. in a humidified incubator. For the experiments cells were cultured in 60-mm plastic dishes or 96-well plastic plates.
Cell proliferation kit II (Roche Inc.) is based on colorimetric change of the yellow tetrazolium salt XTT in orange formazan dye by the respiratory chain of viable cells (Roehm, N W, et al., J Immunol Methods 142:257-265, 1991). Cells seeded at a concentration of 5000/well in 100 μl medium in a 96-well plate were treated with different drugs in the given concentration. After 24 or 48 h the cells were incubated, according to the manufacturer's protocol, with XTT labelling mixture. After 4 h the formazan dye is quantified using a scanning multiwell spectrophotometer with a 495-nm filter. The absorbance is directly correlated with the number of viable cells. The standard absorbance curve was drawn by means of untreated cells seeded at a concentration of from 1000 to 10 000 cells/well with an increasing rate of 1000 cells/well. All standards and experiments were performed in triplicates.
Cells of said cell lines were seeded in 96-well plates (25 000 cells/well, medium volume per well was 100 μl), in […] medium supplemented with fetal calf serum. After 24 h picropodophyllin and the derivatives alpha-apopicropodophyllin and beta-apopicropodo-phyllin were added at different concentrations and the cells were incubated for 72 h. Cell viability was then assayed (see above). […] The results are based on 3 different experiments.
The leukemia cell lines K562/S, […], HL60/0 and HL60/Nov were cultured in 96-well plates as described in Experiment 7. After 24 h, the cells were treated for 72 h with different concentrations of the anti-cancer agent vincristine, with and without co-incubation with 0.05 μM picropodophyllin. […] Cell viability was then assayed. IC50 values for each inhibitor and cell line are shown below (Table 8). The results are based on 3 different experiments.

[4] = rats; cited from earlier work
β-tubulin = settings: in vitro; read-out: IC50, binding to β-tubulin; cited from earlier work

T1 sequence (P06213 28-1382): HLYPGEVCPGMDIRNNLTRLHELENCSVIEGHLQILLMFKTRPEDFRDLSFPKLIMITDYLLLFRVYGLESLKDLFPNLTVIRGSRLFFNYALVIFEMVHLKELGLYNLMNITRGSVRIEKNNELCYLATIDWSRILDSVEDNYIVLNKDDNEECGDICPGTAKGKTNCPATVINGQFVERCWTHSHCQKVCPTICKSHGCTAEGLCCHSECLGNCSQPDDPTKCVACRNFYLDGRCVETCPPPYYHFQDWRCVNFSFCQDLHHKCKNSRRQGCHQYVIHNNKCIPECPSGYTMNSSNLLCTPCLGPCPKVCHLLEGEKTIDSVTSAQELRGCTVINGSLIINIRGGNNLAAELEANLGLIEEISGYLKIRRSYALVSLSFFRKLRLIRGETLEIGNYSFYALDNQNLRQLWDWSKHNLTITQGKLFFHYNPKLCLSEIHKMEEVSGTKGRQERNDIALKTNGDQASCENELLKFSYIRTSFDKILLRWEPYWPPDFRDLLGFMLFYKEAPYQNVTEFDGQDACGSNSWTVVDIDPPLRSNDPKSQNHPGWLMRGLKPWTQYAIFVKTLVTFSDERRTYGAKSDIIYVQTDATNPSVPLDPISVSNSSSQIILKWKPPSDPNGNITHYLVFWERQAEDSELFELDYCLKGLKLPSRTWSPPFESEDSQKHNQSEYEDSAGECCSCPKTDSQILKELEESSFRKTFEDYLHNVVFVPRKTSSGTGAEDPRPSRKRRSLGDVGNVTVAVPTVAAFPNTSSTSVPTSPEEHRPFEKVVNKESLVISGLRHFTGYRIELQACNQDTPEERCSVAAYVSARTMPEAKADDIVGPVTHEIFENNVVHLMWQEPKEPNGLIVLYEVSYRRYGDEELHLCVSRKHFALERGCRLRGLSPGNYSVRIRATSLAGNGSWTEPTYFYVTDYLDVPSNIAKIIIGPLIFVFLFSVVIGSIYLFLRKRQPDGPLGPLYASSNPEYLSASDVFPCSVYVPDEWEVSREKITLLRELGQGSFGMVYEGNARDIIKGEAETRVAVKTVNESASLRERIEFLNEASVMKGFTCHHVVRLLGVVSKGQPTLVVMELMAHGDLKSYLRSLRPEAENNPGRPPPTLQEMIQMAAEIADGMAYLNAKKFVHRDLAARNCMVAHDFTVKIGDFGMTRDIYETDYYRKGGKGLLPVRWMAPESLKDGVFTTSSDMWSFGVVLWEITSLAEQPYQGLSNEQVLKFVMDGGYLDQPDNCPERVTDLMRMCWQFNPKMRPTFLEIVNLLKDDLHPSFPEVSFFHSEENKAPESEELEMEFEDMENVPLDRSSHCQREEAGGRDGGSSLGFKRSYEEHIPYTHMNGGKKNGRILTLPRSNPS
Chain of EGFR tyrosine kinase (P00533 25-1210): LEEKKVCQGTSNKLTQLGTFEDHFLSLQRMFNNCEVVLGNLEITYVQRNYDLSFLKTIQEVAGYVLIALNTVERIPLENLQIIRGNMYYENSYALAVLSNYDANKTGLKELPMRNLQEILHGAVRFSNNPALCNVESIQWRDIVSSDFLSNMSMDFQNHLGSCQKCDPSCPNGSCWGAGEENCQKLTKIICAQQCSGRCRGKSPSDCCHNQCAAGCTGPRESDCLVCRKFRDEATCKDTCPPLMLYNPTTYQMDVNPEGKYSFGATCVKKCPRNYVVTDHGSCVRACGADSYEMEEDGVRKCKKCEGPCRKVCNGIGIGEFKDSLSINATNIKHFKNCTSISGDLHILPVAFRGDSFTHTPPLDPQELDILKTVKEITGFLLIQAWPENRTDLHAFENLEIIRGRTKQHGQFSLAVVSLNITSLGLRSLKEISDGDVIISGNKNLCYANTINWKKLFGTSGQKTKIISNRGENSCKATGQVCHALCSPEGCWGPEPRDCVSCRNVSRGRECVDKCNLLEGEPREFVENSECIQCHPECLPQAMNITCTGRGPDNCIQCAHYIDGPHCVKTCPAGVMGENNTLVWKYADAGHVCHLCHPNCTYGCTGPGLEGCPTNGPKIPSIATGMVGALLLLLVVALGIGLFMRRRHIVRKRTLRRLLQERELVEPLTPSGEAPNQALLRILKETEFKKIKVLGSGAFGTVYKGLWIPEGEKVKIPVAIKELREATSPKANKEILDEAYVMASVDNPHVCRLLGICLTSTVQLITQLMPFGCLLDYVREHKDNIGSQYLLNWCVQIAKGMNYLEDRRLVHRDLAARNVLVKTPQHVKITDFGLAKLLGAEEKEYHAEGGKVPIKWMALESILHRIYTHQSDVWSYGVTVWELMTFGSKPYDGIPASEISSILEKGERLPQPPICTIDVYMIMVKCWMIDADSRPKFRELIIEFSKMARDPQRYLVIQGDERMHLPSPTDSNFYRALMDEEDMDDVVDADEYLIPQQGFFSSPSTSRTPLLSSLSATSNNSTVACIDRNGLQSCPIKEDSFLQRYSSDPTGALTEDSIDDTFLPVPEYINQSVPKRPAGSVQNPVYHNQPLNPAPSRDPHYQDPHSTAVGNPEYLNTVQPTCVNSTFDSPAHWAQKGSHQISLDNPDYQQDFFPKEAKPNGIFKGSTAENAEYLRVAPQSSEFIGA

| SMILES | Level of phosphorylation in intact cells, substrate IR (insulin receptor (IR)) | Interference with substrate phosphorylation of EGFR tyrosine kinase (EGFR tyrosine kinase) | Surviving mice/Investigated mice ([1]; 7 mg/kg/d i.p., 1 d) | Surviving mice/Investigated mice ([1]; 7 mg/kg/d i.p., 2 d) | Surviving mice/Investigated mice ([1]; 7 mg/kg/d i.p., 3 d) | Surviving mice/Investigated mice ([1]; 7 mg/kg/d i.p., 4 d) | Surviving mice/Investigated mice ([1]; 7 mg/kg/d i.p., 5 d) | Surviving mice/Investigated mice ([1]; 28 mg/kg/d i.p., 1 d) | Surviving mice/Investigated mice ([1]; 28 mg/kg/d i.p., 2 d) | Surviving mice/Investigated mice ([1]; 28 mg/kg/d i.p., 3 d) | Surviving mice/Investigated mice ([1]; 28 mg/kg/d i.p., 4 d) | Surviving mice/Investigated mice ([1]; 28 mg/kg/d i.p., 5 d) | Signs of disease ([1]; high dose (28 mg/kg/d) i.p. daily) | Signs of disease ([1]; low dose (7 mg/kg/d) i.p. daily) | Effect on tumor growth [2] | IC50 [3] | Fold higher LD50 than podophyllotoxin [4] | Animals dead within 2 days ([1]; high dose (28 mg/kg/d) i.p.) | Animals dead within 2 days ([1]; low dose (7 mg/kg/d) i.p.) | IC50 (β-tubulin) |
| --- | --- | --- | --- | --- | --- | --- | --- | --- | --- | --- | --- | --- | --- | --- | --- | --- | --- | --- | --- | --- |
| COc1cc([C@@H]2c3cc4c(cc3[C@H](O)[C@H]3COC(=O)[C@@H]23)OCO4)cc(OC)c1OC [Picropodophyllin, picropodophyllin] | […] | failed to interfere | […] | […] | […] | […] | […] | […] | […] | […] | […] | […] | did not exhibit any evidence of disease | did not exhibit any evidence of disease | significantly inhibited growth | 320 nM | […] |  |  |  |
| COc1cc([C@@H]2c3cc4c(cc3[C@H](O)[C@H]3COC(=O)[C@H]23)OCO4)cc(OC)c1OC [Podophyllotoxin, podophyllotoxin] | 101 % OD |  | […] | […] | […] |  |  | […] | […] |  |  |  |  |  |  |  |  | […] | 67% | […] |
